Laboratory results published in PubChem BioAssay (NCI).
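48-hour exposure; five concentrations; linearly interpolated endpoints. The concentration for full growth arrest is given as TGI.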

How the values were obtained:
Experiment in all cases: NCI anticancer screen, dose series, 48 h
SN12C renal = tested on: SN12C renal
MDA-MB-231 breast = tested on: MDA-MB-231 breast
EKVX NSCLC = tested on: EKVX NSCLC
OVCAR-3 ovarian = tested on: OVCAR-3 ovarian
PC-3 prostate = tested on: PC-3 prostate
HOP-92 NSCLC = tested on: HOP-92 NSCLC
SK-MEL-2 melanoma = tested on: SK-MEL-2 melanoma
HT29 colon = tested on: HT29 colon
OVCAR-4 ovarian = tested on: OVCAR-4 ovarian
UACC-62 melanoma = tested on: UACC-62 melanoma
SW-620 colon = tested on: SW-620 colon
A498 renal = tested on: A498 renal
BT-549 breast = tested on: BT-549 breast
HCC-2998 colon = tested on: HCC-2998 colon
IGROV1 ovarian = tested on: IGROV1 ovarian
CAKI-1 renal = tested on: CAKI-1 renal
M14 melanoma = tested on: M14 melanoma
LOX IMVI melanoma = tested on: LOX IMVI melanoma
NCI-H460 lung = tested on: NCI-H460 lung
SNB-19 CNS = tested on: SNB-19 CNS
NCI-H23 lung = tested on: NCI-H23 lung
U251 CNS = tested on: U251 CNS
SK-MEL-5 melanoma = tested on: SK-MEL-5 melanoma
SR leukemia = tested on: SR leukemia
SNB-75 CNS = tested on: SNB-75 CNS
K-562 leukemia = tested on: K-562 leukemia
RXF 393 renal = tested on: RXF 393 renal
HL-60(TB) leukemia = tested on: HL-60(TB) leukemia
OVCAR-5 ovarian = tested on: OVCAR-5 ovarian
ACHN renal = tested on: ACHN renal
NCI-H226 lung = tested on: NCI-H226 lung
RPMI-8226 leukemia = tested on: RPMI-8226 leukemia
DU-145 prostate = tested on: DU-145 prostate
MDA-N = tested on: MDA-N
SK-OV-3 ovarian = tested on: SK-OV-3 ovarian
OVCAR-8 ovarian = tested on: OVCAR-8 ovarian
COLO 205 colon = tested on: COLO 205 colon
UACC-257 melanoma = tested on: UACC-257 melanoma
KM12 colon = tested on: KM12 colon
MALME-3M melanoma = tested on: MALME-3M melanoma
TK-10 renal = tested on: TK-10 renal
HS 578T breast = tested on: HS 578T breast
HCT-116 colon = tested on: HCT-116 colon
MOLT-4 leukemia = tested on: MOLT-4 leukemia
SK-MEL-28 melanoma = tested on: SK-MEL-28 melanoma
MDA-MB-435 = tested on: MDA-MB-435
UO-31 renal = tested on: UO-31 renal
786-0 renal = tested on: 786-0 renal
HCT-15 colon = tested on: HCT-15 colon
NCI/ADR-RES ovarian = tested on: NCI/ADR-RES ovarian
SF-539 CNS = tested on: SF-539 CNS
SF-295 CNS = tested on: SF-295 CNS
A549 NSCLC = tested on: A549 NSCLC
HOP-62 NSCLC = tested on: HOP-62 NSCLC
SF-268 CNS = tested on: SF-268 CNS
MCF7 breast = tested on: MCF7 breast
CCRF-CEM leukemia = tested on: CCRF-CEM leukemia
NCI-H522 lung = tested on: NCI-H522 lung
T-47D breast = tested on: T-47D breast

Cc1ccc2[nH]c3c(c2c1)CCC/C3=N/N=C(N)N
TGI (SN12C renal): 3.05 µM | TGI (MDA-MB-231 breast): 3.04 µM | TGI (EKVX NSCLC): 6.78 µM | TGI (OVCAR-3 ovarian): 8.21 µM | TGI (PC-3 prostate): 10.2 µM | TGI (HOP-92 NSCLC): 6.5 µM | TGI (SK-MEL-2 melanoma): 3.41 µM | TGI (HT29 colon): 3.39 µM | TGI (OVCAR-4 ovarian): 11.4 µM | TGI (UACC-62 melanoma): 4.73 µM | TGI (SW-620 colon): > 100 µM | TGI (A498 renal): 45.2 µM | TGI (BT-549 breast): 41.1 µM | TGI (HCC-2998 colon): 3.3 µM | TGI (IGROV1 ovarian): 3.54 µM | TGI (CAKI-1 renal): 2.94 µM | TGI (M14 melanoma): 3.15 µM | TGI (LOX IMVI melanoma): 4.39 µM | TGI (NCI-H460 lung): 2.89 µM | TGI (SNB-19 CNS): 4.76 µM | TGI (NCI-H23 lung): 9.97 µM | TGI (U251 CNS): 4.72 µM | TGI (SK-MEL-5 melanoma): 3.4 µM | TGI (SR leukemia): 5.64 µM | TGI (SNB-75 CNS): 4.54 µM | TGI (K-562 leukemia): 5 µM | TGI (RXF 393 renal): 3.95 µM | TGI (HL-60(TB) leukemia): > 100 µM | TGI (OVCAR-5 ovarian): 5.53 µM | TGI (ACHN renal): 3.64 µM | TGI (NCI-H226 lung): 10.1 µM | TGI (RPMI-8226 leukemia): 5.12 µM | TGI (DU-145 prostate): 3.34 µM | TGI (MDA-N): 2.89 µM | TGI (SK-OV-3 ovarian): 38.3 µM | TGI (OVCAR-8 ovarian): 4.49 µM | TGI (COLO 205 colon): 3.13 µM | TGI (UACC-257 melanoma): 7.41 µM | TGI (KM12 colon): 3.16 µM | TGI (MALME-3M melanoma): 5.45 µM

Cc1nc2c(O)cc3c4c(n(Cc5ccccc5)c3c2nc1C)C(=O)CCC4
TGI (TK-10 renal): > 100 µM | TGI (SN12C renal): > 100 µM | TGI (MDA-MB-231 breast): > 100 µM | TGI (EKVX NSCLC): > 100 µM | TGI (OVCAR-3 ovarian): 83.2 µM | TGI (HS 578T breast): > 100 µM | TGI (PC-3 prostate): > 100 µM | TGI (HOP-92 NSCLC): 74 µM | TGI (SK-MEL-2 melanoma): 50.1 µM | TGI (HT29 colon): > 100 µM | TGI (OVCAR-4 ovarian): 59.3 µM | TGI (HCT-116 colon): > 100 µM | TGI (UACC-62 melanoma): > 100 µM | TGI (MOLT-4 leukemia): > 100 µM | TGI (SW-620 colon): > 100 µM | TGI (A498 renal): > 100 µM | TGI (HCC-2998 colon): > 100 µM | TGI (SK-MEL-28 melanoma): 76.2 µM | TGI (M14 melanoma): > 100 µM | TGI (MDA-MB-435): > 100 µM | TGI (UO-31 renal): > 100 µM | TGI (LOX IMVI melanoma): > 100 µM | TGI (NCI-H460 lung): > 100 µM | TGI (SNB-19 CNS): > 100 µM | TGI (NCI-H23 lung): > 100 µM | TGI (786-0 renal): 69.1 µM | TGI (U251 CNS): 64 µM | TGI (HCT-15 colon): > 100 µM | TGI (SK-MEL-5 melanoma): > 100 µM | TGI (SR leukemia): > 100 µM | TGI (K-562 leukemia): > 100 µM | TGI (RXF 393 renal): 32.2 µM | TGI (HL-60(TB) leukemia): > 100 µM | TGI (OVCAR-5 ovarian): > 100 µM | TGI (ACHN renal): > 100 µM | TGI (NCI-H226 lung): > 100 µM | TGI (RPMI-8226 leukemia): > 100 µM | TGI (DU-145 prostate): > 100 µM | TGI (NCI/ADR-RES ovarian): > 100 µM | TGI (SF-539 CNS): 48.1 µM | TGI (MDA-N): > 100 µM | TGI (SF-295 CNS): > 100 µM | TGI (SK-OV-3 ovarian): 69.6 µM | TGI (OVCAR-8 ovarian): 52.6 µM | TGI (COLO 205 colon): > 100 µM | TGI (A549 NSCLC): > 100 µM | TGI (HOP-62 NSCLC): 39.9 µM | TGI (UACC-257 melanoma): > 100 µM | TGI (SF-268 CNS): 50.9 µM | TGI (KM12 colon): > 100 µM | TGI (MCF7 breast): > 100 µM | TGI (MALME-3M melanoma): > 100 µM | TGI (CCRF-CEM leukemia): > 100 µM

O=[N+]([O-])c1cc(-c2nnc(C34CC5CC(CC(C5)C3)C4)o2)cc([N+](=O)[O-])c1
TGI (SN12C renal): > 100 µM | TGI (MDA-MB-231 breast): > 100 µM | TGI (EKVX NSCLC): > 100 µM | TGI (OVCAR-3 ovarian): > 100 µM | TGI (HS 578T breast): > 100 µM | TGI (PC-3 prostate): > 100 µM | TGI (NCI-H522 lung): > 100 µM | TGI (HOP-92 NSCLC): 94.6 µM | TGI (SK-MEL-2 melanoma): > 100 µM | TGI (HT29 colon): 32.2 µM | TGI (OVCAR-4 ovarian): > 100 µM | TGI (HCT-116 colon): > 100 µM | TGI (UACC-62 melanoma): > 100 µM | TGI (MOLT-4 leukemia): > 100 µM | TGI (SW-620 colon): 37.8 µM | TGI (A498 renal): > 100 µM | TGI (HCC-2998 colon): > 100 µM | TGI (IGROV1 ovarian): > 100 µM | TGI (CAKI-1 renal): > 100 µM | TGI (SK-MEL-28 melanoma): > 100 µM | TGI (M14 melanoma): 70.4 µM | TGI (MDA-MB-435): 77 µM | TGI (UO-31 renal): > 100 µM | TGI (LOX IMVI melanoma): > 100 µM | TGI (NCI-H460 lung): > 100 µM | TGI (SNB-19 CNS): > 100 µM | TGI (NCI-H23 lung): > 100 µM | TGI (786-0 renal): > 100 µM | TGI (T-47D breast): > 100 µM | TGI (U251 CNS): > 100 µM | TGI (HCT-15 colon): > 100 µM | TGI (SK-MEL-5 melanoma): 44.8 µM | TGI (SR leukemia): > 100 µM | TGI (SNB-75 CNS): > 100 µM | TGI (K-562 leukemia): > 100 µM | TGI (RXF 393 renal): > 100 µM | TGI (HL-60(TB) leukemia): > 100 µM | TGI (OVCAR-5 ovarian): > 100 µM | TGI (ACHN renal): > 100 µM | TGI (NCI-H226 lung): > 100 µM | TGI (RPMI-8226 leukemia): > 100 µM | TGI (DU-145 prostate): > 100 µM | TGI (NCI/ADR-RES ovarian): > 100 µM | TGI (SF-539 CNS): > 100 µM | TGI (MDA-N): > 100 µM | TGI (SF-295 CNS): > 100 µM | TGI (SK-OV-3 ovarian): > 100 µM | TGI (OVCAR-8 ovarian): > 100 µM | TGI (COLO 205 colon): 42.4 µM | TGI (A549 NSCLC): > 100 µM | TGI (HOP-62 NSCLC): > 100 µM | TGI (UACC-257 melanoma): > 100 µM | TGI (SF-268 CNS): > 100 µM | TGI (KM12 colon): > 100 µM | TGI (MALME-3M melanoma): > 100 µM | TGI (CCRF-CEM leukemia): > 100 µM
